Laboratory results reported in paper PMC9037752, “A Novel Angiotensin I-Converting Enzyme Inhibitory Peptide Derived From Goat Milk Casein Hydrolysate Modulates Angiotensin II-Stimulated Effects on Vascular Smooth Muscle Cells” (Frontiers in Nutrition, 2022).
Ends that are not written are not given here.

Tests used:
[1] = target: T1, Angiotensin Converting Enzyme from rabbit lung (Oryctolagus cuniculus, UniProt P12822); assay: ACE-inhibitory activity assay (RP-HPLC, HHL substrate); assay type: biochemical; details: HHL 6.5 mM, ACE 0.2 U, 37°C, 60 min, pH 8.3; HA at 228 nm by RP-HPLC; mean ± SD; sample concentration not given
T1 construct: Angiotensin Converting Enzyme from rabbit lung; purchased Sigma-Aldrich; host or cells: rabbit lung tissue
T1 sequence (P12822 34-1310): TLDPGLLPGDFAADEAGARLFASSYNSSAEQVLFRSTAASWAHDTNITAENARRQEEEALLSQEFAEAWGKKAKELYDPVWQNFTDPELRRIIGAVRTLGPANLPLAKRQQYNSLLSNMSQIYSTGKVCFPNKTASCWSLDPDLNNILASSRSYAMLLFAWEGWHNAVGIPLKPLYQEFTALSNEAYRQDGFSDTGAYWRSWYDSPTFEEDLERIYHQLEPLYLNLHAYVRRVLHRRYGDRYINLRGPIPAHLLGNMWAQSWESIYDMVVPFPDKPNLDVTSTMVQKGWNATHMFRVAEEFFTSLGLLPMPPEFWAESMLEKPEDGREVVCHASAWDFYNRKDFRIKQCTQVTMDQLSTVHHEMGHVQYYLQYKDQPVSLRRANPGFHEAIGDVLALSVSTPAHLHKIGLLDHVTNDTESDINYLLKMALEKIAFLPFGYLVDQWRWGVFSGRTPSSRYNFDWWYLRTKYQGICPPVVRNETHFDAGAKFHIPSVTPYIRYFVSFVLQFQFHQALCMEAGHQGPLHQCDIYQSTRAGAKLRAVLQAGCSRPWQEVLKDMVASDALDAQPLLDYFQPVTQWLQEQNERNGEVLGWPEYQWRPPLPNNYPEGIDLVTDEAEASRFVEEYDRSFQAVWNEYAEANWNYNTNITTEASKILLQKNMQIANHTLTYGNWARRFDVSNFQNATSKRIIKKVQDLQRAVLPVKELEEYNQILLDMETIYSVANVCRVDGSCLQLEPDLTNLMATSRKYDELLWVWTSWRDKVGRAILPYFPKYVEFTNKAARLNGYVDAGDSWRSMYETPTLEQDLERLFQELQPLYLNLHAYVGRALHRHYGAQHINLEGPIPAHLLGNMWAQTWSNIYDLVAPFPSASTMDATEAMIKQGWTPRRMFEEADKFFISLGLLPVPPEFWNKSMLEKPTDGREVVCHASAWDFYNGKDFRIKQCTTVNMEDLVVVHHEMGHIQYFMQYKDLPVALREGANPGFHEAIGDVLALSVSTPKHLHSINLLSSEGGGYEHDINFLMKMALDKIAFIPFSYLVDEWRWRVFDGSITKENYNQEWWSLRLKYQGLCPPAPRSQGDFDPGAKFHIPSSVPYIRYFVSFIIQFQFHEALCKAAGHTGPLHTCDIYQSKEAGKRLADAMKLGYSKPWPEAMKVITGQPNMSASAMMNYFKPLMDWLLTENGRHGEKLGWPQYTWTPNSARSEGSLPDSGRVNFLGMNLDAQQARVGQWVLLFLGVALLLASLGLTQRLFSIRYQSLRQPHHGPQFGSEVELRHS
Description: (§1) ACE inhibitory activity was measured using an RP-HPLC method with Hippuryl-His-Leu (HHL) as a substrate, which generated hippuric acid (HA) under enzymatic hydrolysis ([19]). The sample was dissolved in a borax-boric acid buffer containing 0.15 M NaCl (pH = 8.3). Firstly, add 10 μL ACE (0.2 U) to the sample tube and blank tube, respectively. At the same time, add 10 μL of sample to the sample tube, and add 10 μL of buffer and 80 μL of 1 M HCl to the blank tube, then pre-incubate at 37°C for 5 min. The reaction was initiated by adding 30 μL HHL (6.5 mM) and incubated for 60 min at the same temperature until 80 μL 1 M HCl was added to terminate the reaction.
ACE inhibitory activity (%) was confirmed by monitoring the formation of HA at 228 nm as detected by RP-HPLC on a C18 column (250 × 4.6 mm, 5 μm, Ecosil). The mobile phase was 25% acetonitrile and 75% water with 0.01% trifluoroacetic acid with a flow rate of 1 mL/min. The inhibition activity was calculated using the following equation:
Inhibition activity(%)=A-B-A0/A-A0×100%
Where, A = the HA peak area of the control; B = the HA peak area of the sample; A0 = the HA peak area of control with HCL before pre-incubated.
The inhibitory activity of the hydrolysates or collected fractions was expressed as percentage of ACE inhibition at a given protein concentration ([20]).

[2] = target: T1, Angiotensin Converting Enzyme from rabbit lung; assay: Inhibitory kinetics study (Lineweaver-Burk plot); assay type: biochemical; details: different HHL and peptide concentrations
Description: Briefly, the enzyme activities were measured with different concentrations of the substrate (HHL) and the ACE inhibitory pattern in the presence of the inhibitor was determined with a Lineweaver–Burk plot.

[3] = target: T1, Angiotensin Converting Enzyme from rabbit lung; assay: ACE inhibitory activity after in vitro gastrointestinal digest; assay type: biochemical
Description: as §1
In vitro digestion of the potent purified ACE inhibitory peptide was carried out according to the reported method, with some adjustments ([22], [23]). Peptide (0.4 mL, 1.5 mg mL^−1) was incubated with 2% (w/w) α-amylase, pepsin, or trypsin at 37°C.
In successive digestion tests, the peptide was first dissolved in buffer solution (pH 6.8) to 2 mg mL^−1 and incubated with α-amylase for 5 min. Then the pH was decreased to pH 2 with the addition of 1 M HCl. Subsequently, the gastric digestion was initiated by adding pepsin at an enzyme-substrate ratio of 2:100 (w/w). The reaction was stopped after 2 h by raising the pH to 8.0 with 1 M NaOH, and trypsin was added to the reactor to continue gastrointestinal digestion for 4 h. Last, the reaction mixture was heated for 15 min in boiling water to inactivate the enzyme.

A7r5 cells [4] = assay: Cell cytotoxicity test (CCK-8); assay type: cell-based, rat; details: 1–200 μg mL^−1, 24 h, CCK-8, P > 0.05
Description: The cytotoxic effects of FPQYLQYPY in cell culture were evaluated using the Cell Counting Kit-8. First, A7r5 cells were seeded at 1 × 10^4 cells per well into 96-well plates (Costar, Corning, NY, USA) and cultured in a 5% CO2 incubator at 37°C for 24 h. Then, the medium of each well was replaced by 100 μL of fresh medium with different concentrations of FPQYLQYPY (0, 1, 5, 10, 50, 100, or 200 μg mL^−1). After further incubation for 24 h, 10 μL CCK-8 solution was added to each well. Then, the plate was incubated for another 2 h.

A7r5 cells [5] = assay: Wound healing assay of Ang II-stimulated VSMCs; assay type: cell-based, rat; details: 100 μg mL^−1, Ang II 1 μM, 24 h, ImageJ
Description: Migration of A7r5 cells was evaluated using the wound healing assay ([25]). Three lines were drawn horizontally on the back of each hole on the 6-well plate with a marker. Cells in logarithmic growth phase were evenly seeded into 6-well plates with 2 × 10^5 cells per well, and grown in complete medium until the cells covered the bottom of the plate, then the medium was replaced by quiescing medium for overnight.
Afterwards, a sterile 200 μL spear head was used to quickly delimit at an average equal distance in the vertical direction according to the marking line, and washed with PBS to remove the floating cells. […] The migration distance was analyzed by ImageJ software.

A7r5 cells [6] = assay: Transwell cell migration assay of Ang II-stimulated VSMCs; assay type: cell-based, rat; details: 48 h, Ang II in lower chamber, crystal violet, absorbance 570 nm
Description: A7r5 cells were collected and suspended in DMEM (1% FBS), and then the density was adjusted to 2 × 10^5 cells ml^−1. In each group, cell suspensions with or without FPQYLQYPY were cultured in the upper chamber of a Transwell (8.0 μm, Corning, NY, USA) ([26]), and at the same time, the lower chamber was filled with or without Ang II for 48 h. […] After rinsing with PBS, a cotton swab was used to remove the upper unmigrated cells. The migratory cells were observed and photographed under an inverted microscope. Last, a 33% acetic acid solution was added to quantify the crystal violet, and the absorbance of samples was measured at a wavelength of 570 nm using a microplate reader.

A7r5 cells [7] = assay: Real time quantitative RT-PCR of differentially expressed genes; assay type: cell-based, rat; details: FPQYLQYPY-treated group vs Ang II-treated group
Description: Total RNA was extracted from A7r5 cells using TRIzol reagent, according to the manufacturer's specifications. The information of primer sequences is shown in Supplementary Table 1. RT reactions were performed in a GeneAmp® PCR System 9700 (Applied Biosystems, USA). Then, Real-time PCR was performed using the LightCycler® 480 II Real-time PCR Instrument (Roche, Swiss). The relative expression level was calculated using the 2^−ΔΔCt.

A7r5 cells [8] = details: co-treatment 10, 50, 100 μg mL^−1 with Ang II 0.1 μM, 24 h, CCK-8
Description: The rat aortic vascular smooth muscle cell line A7r5, was purchased from Cell bank of Chinese Academy of Sciences (Shanghai, China). A7r5 cells between passage 8 and 20 were grown in DMEM supplemented with 10% FBS and antibiotics until they reached confluence. For experiments, the confluent cells were placed in a quiescing medium (DMEM + 1% FBS + antibiotics) ([24]) for 24 h, before treatment with different concentrations of [sequence] and Ang II for different time periods.
Cell proliferation was measured by the Cell Counting Kit-8. A7r5 cells were seeded at 5 × 10^3 cells per well into 96-well plates and grown in DMEM with 10% of FBS for 24 h, then the medium was replaced by quiescing medium overnight. The cells were co-treated with different concentrations of [sequence] (0, 10, 50, 100 μg mL^−1) and Ang II (0.1 μM) for 24 h. The absorbance of samples at a wavelength of 450 nm was measured using a microplate reader. The cell survival rate (%) was determined by the percentage of living cells in the test wells compared to the control wells.

ACE = details: peptides <3 kDa from fermented goat milk; cited from earlier work
Source text: Among them, VLPVPQKAV ...

[9] = target: T2, Angiotensin Converting Enzyme from rabbit lung (rabbit) (UniProt P12822)
T2 sequence: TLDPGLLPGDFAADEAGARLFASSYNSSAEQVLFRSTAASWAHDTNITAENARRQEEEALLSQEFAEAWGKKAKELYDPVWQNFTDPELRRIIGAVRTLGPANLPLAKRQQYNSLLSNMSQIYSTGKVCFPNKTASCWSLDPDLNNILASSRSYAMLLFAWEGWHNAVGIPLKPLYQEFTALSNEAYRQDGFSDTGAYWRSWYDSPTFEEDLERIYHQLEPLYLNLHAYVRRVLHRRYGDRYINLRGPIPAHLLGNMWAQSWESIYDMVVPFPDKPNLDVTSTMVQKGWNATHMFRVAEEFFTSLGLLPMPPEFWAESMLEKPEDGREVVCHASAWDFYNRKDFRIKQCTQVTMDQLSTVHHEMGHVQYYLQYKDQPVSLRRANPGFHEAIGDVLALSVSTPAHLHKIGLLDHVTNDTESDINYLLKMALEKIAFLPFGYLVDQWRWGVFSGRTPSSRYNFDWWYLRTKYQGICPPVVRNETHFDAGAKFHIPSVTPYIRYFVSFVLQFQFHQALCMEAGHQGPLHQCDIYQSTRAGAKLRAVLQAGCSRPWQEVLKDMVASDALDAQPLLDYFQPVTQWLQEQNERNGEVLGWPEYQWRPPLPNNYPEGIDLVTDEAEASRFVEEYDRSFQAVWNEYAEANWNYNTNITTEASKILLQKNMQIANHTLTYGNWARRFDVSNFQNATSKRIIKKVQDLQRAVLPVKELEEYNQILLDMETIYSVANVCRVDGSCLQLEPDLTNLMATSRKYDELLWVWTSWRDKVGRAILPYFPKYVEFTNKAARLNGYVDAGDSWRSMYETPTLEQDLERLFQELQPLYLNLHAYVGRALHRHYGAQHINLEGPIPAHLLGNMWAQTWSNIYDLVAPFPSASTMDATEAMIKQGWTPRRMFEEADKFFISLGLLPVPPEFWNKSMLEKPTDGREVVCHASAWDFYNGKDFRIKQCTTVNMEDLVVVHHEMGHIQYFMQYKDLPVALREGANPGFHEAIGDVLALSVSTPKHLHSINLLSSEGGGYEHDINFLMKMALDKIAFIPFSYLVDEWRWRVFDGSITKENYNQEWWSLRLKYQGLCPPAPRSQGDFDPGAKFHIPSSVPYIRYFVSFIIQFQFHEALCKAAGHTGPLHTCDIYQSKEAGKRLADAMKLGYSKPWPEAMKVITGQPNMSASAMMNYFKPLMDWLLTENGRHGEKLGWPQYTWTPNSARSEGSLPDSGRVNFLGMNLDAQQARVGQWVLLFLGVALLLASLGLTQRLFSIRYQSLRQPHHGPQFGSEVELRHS

[10] = target: T2, Angiotensin Converting Enzyme from rabbit lung (rabbit); remark: listed apart in the source
[11] = before digestion (inactivated enzyme), mean ± SD

Molecule: FPQYLQYPY [FPQYLQYPY, also synthesized]
- ACE inhibition rate [1]: 71.19 ± 0.71%
- Inhibition pattern against ACE [2]: non-competitive
- ACE inhibitory (%), oral digestion (α-Amylase), Digested ([3]; 2% (w/w) α-amylase, pH 6.8, 5 min, 37°C, mean ± SD): 57.95 ± 0.22%
- ACE inhibitory (%), gastric digestion (Pepsin), Original [3, 11]: 54.12 ± 1.56%
- ACE inhibitory (%), intestinal digestion (Trypsin), Original [3, 11]: 49.86 ± 1.68%
- ACE inhibitory (%), oral digestion (α-Amylase), Original [3, 11]: 53.47 ± 7.32%
- ACE inhibitory (%), gastric digestion (Pepsin), Digested ([3]; pepsin 2:100 (w/w), pH 2, 2 h, 37°C, mean ± SD): 56.41 ± 1.91%
- ACE inhibitory (%), intestinal digestion (Trypsin), Digested ([3]; trypsin 2% (w/w), pH 8.0, 4 h, 37°C, mean ± SD): 45.76 ± 0.42%
- Change of ACE inhibitory activity after incubation with the digestive enzymes ([3]; α-amylase, pepsin, trypsin, 37°C, read-out ACE inhibition): no significant difference
- Cytotoxic effect on A7r5 cells (A7r5 cells [4]): no obvious cytotoxic effect
- Distance of the wound healing area (migration) (A7r5 cells [5]): restore the distance of the wound healing area to the level of the control group
- Cell migration in Transwell experiment (A7r5 cells [6]): the decrease in the level of cell migration was noteworthy
- Cox5b mRNA expression (A7r5 cells [7]): downregulated
- Efna4 mRNA expression (A7r5 cells [7]): downregulated
- Igf1r mRNA expression (A7r5 cells [7]): downregulated
- Itga3 mRNA expression (A7r5 cells [7]): downregulated
- Myl4 mRNA expression (A7r5 cells [7]): upregulated
- Plcb3 mRNA expression (A7r5 cells [7]): downregulated
- Shc4 mRNA expression (A7r5 cells [7]): upregulated
- Taok3 mRNA expression (A7r5 cells [7]): downregulated
- Tgfb1 mRNA expression (A7r5 cells [7]): upregulated
- Proliferation of Ang II-stimulated VSMCs (A7r5 cells [8]): significantly decreased the percentage of proliferating cells

Molecule: VLPVPQKAVPQ
- ACE-inhibitory activity (ACE): good ACE-inhibitory activity

Molecule: VLPVPQKVVPQ
- ACE-inhibitory activity (ACE): good ACE-inhibitory activity

Molecule: FPQYLQYPY [ACE-inhibitory peptide Phe-Pro-Gln-Tyr-Leu-Gln-Tyr-Pro-Tyr (…)]
- ACE inhibitory (%), undigested peptide ('Original') of the gastric digestion step (pepsin) [9]: 54.1%
- ACE inhibitory (%), undigested peptide ('Original') of the intestinal digestion step (trypsin) [9]: 49.9%
- ACE inhibitory (%), undigested peptide ('Original') of the oral digestion step (α-amylase) [9]: 53.5%
- ACE-inhibitory ability (%) of the purified fraction F3 (HHL substrate, hippuric acid by RP-HPLC; concentration not given) [10]: 71.2%
